# Experimental data from patent US8969542B2, “HPV polyepitope constructs and uses thereof” (priority 2007, dated 2015).
# Where a SMILES comes first, the peptide text is derived from it.
# Legend:
# [1] = system: CD8+ spleen cells of HLA transgenic mice (HLA-A01/Kb, F1 HLA-A02/KbxBalb/c, HLA-A11/Kb, HLA-A24/Kb); test: Immunogenicity after HPV DNA construct immunization, direct ex vivo IFNγ ELISPOT; type: in vivo, mouse; details: for ICCG6137 SFC/10^6 cells Delta / ICCG6137 SFC/10^6 cells Ratio: immunization with DNA construct ICCG 6137; for ICCG6137 SFC/10^6 cells Delta / ICCG6138 SFC/10^6 cells Delta: HLA transgenic mice (HLA-A01/A02/A11/A24), CD8+ cells restimulated with WT peptide 10 μg/mL; for ICCG6137 SFC/10^6 cells Delta / ICCG6137 SFC/10^6 cells Ratio / ICCG6138 SFC/10^6 cells Delta / ICCG6138 SFC/10^6 cells Ratio: IFNγ ELISPOT; for ICCG6137 SFC/10^6 cells Ratio / ICCG6138 SFC/10^6 cells Ratio: HLA transgenic mice, response ratio, WT peptide 10 μg/mL; for ICCG6138 SFC/10^6 cells Delta / ICCG6138 SFC/10^6 cells Ratio: immunization with DNA construct ICCG 6138
# Procedure: The immunogenicity of HPV HLA class I-restricted epitopes encoded in the DNA constructs was tested in the relevant HLA transgenic mice. […] To ensure an equal distribution of mice between different groups, a randomisation procedure based on body weight was performed. Female and male mice (age between 8 and 24 weeks) were ranked by body weight, extreme light or heavy animals were excluded. The remaining animals were grouped by sequentially assigning animals for the 2 experiments.
# Mice were pre-treated with cardiotoxin (Sigma, C9759) on day −4 by bilateral intramuscular injection of 100 μl (2×50 μl) of a 10 μM cardiotoxin solution. Four days later, all mice were immunised with 100 μg HPV-DNA plasmid (diluted to 1 mg/ml in PBS) by bilateral injection of 50 μg in the m. tibialis anterior. […]
# (§1) Mice were euthanized and spleen cells (SPC) were isolated 13 days after immunization. […] Spleen cells of DNA- and peptide-immunized HLA-A11/Kb mice were analyzed individually. SPC of all negative control mice were pooled per 2 mice, resulting in 3 data points for each peptide tested.
# (§2) A direct ex vivo IFNγ ELISPOT assay was used as surrogate CTL readout. Basically, purified CD8+ cells were incubated with the individual HPV-specific HLA-restricted peptides (10 μg/mL) loaded on the appropriate antigen presenting cells (APC), in anti-mouse IFNγ antibody-coated ELISPOT plates. […] After 20 h incubation, IFNγ-producing cells were visualized by further developing the plates with biotinylated anti-mouse IFNγ antibody, streptavidin-HRP and AEC as substrate.
# (§3) Some of the CTL epitopes included in the DNA constructs are analoged sequences of the wild type viral epitopes. For these particular epitopes, only the wild type sequences were used as in vitro stimulus for CTL readout.
# [2] = system: CD8+ spleen cells of HLA transgenic mice (HLA-A01/Kb, F1 HLA-A02/KbxBalb/c, HLA-A11/Kb, HLA-A24/Kb); test: Immunogenicity after peptide pool/IFA immunization, direct ex vivo IFNγ ELISPOT; type: in vivo, mouse; details: for Delta SFC/10^6 cells / Ratio: Peptide Pool; for Peptide Pool SFC/10^6 cells Delta / Peptide Pool SFC/10^6 cells Ratio: immunization with pool of peptides emulsified in IFA, IFNγ ELISPOT; for Peptide Pool SFC/10^6 cells Delta: HLA transgenic mice (HLA-A01/A02/A11/A24), CD8+ cells restimulated with WT peptide 10 μg/mL; for Peptide Pool SFC/10^6 cells Ratio: HLA transgenic mice, response ratio, WT peptide 10 μg/mL
# Procedure: CTL binding epitopes were evaluated for their immunogenicity in different HLA transgenic mice. To this, a single immunization with CTL peptide pools together with a common HTL epitope emulsified in IFA was performed and up to 14 days later, CD8+ spleen cells were isolated and evaluated for epitope specificity using a direct ex vivo IFNγ ELISPOT assay.
# Peptides were dissolved in DMSO at a concentration of 10 mg/mL. For each of the 4 DNA constructs, the corresponding HLA-restricted peptides were pooled per HLA type (5 to 7 CTL peptides/pool). A known HTL peptide ([…]) was added and the peptide pools were diluted in PBS to the required peptide concentration (i.e. 25 μg of each CTL peptide and 120 μg HTL peptide in 50 μl). After adding an equal volume of IFA (Pierce, lot DG56079), the mixture was emulsified by forcing it through a small orifice. Mice were immunized subcutaneously at the base of the tail with 50 μl peptide/IFA mixture.
# As negative control for the peptide-immunized mice, 18 mice (in total) were injected with a PBS/IFA mixture.
# as §1, §2, §3
# [3] = HLA-A02 epitopes, F1 HLA-A02/KbxBalb/c mice, DNA construct ICCG6149, median of mouse pools
# [4] = HLA-A02 epitopes, F1 HLA-A02/KbxBalb/c mice, DNA construct ICCG6150, median of mouse pools
# [5] = HLA-A02 epitopes, F1 HLA-A02/KbxBalb/c mice, median of mouse pools
# [6] = HLA-A11 epitopes, HLA-A11/Kb mice, DNA construct ICCG6149, median
# [7] = HLA-A11 epitopes, HLA-A11/Kb mice, DNA construct ICCG6150, median
# [8] = HLA-A11 epitopes, HLA-A11/Kb mice, median
# [9] = HLA-A24 epitopes, HLA-A24/Kb mice, DNA construct ICCG6149, median of mouse pools
# [10] = HLA-A24 epitopes, HLA-A24/Kb mice, DNA construct ICCG6150, median of mouse pools
# [11] = HLA-A24 epitopes, HLA-A24/Kb mice, median of mouse pools
# [12] = HLA-A01 epitopes, HLA-A01/Kb mice, DNA construct ICCG6150, median of mouse pools
# [13] = HLA-A01 epitopes, HLA-A01/Kb mice, median of mouse pools
compound,measurement,setting,value
133 (YMLDLQPETT; Human papillomavirus type 16) [compound 133],Delta SFC/10^6 cells,[1]; [3],5 SFC/10^6 cells
same,Ratio,[1]; [3],1.4
same,Delta SFC/10^6 cells,[1]; [4],10 SFC/10^6 cells
same,Ratio,[1]; [4],3.3
same,Delta SFC/10^6 cells,[2]; [5],1 SFC/10^6 cells
same,Ratio,[2]; [5],1.0
148 (FAFTDLTIV; Human papillomavirus type 31) [compound 148],ICCG6137 SFC/10^6 cells Delta,[1],1 SFC/10^6 cells
same,ICCG6137 SFC/10^6 cells Ratio,[1],1.0
same,ICCG6138 SFC/10^6 cells Delta,[1],1 SFC/10^6 cells
same,ICCG6138 SFC/10^6 cells Ratio,[1],1.0
same,Peptide Pool SFC/10^6 cells Delta,[2],100 SFC/10^6 cells
same,Peptide Pool SFC/10^6 cells Ratio,[2],8.5
138 (FVVYRDSIPH; Human papillomavirus type 18) [compound 138],Delta SFC/10^6 cells,[1]; [6],1 SFC/10^6 cells
same,Ratio,[1]; [6],1.0
same,Delta SFC/10^6 cells,[1]; [7],1 SFC/10^6 cells
same,Ratio,[1]; [7],1.0
same,Delta SFC/10^6 cells,[2]; [8],110 SFC/10^6 cells
same,Ratio,[2]; [8],1.3
141 (RFHNIRGRW; Human papillomavirus type 16) [compound 141],Delta SFC/10^6 cells,[1]; [9],3 SFC/10^6 cells
same,Ratio,[1]; [9],1.1
same,Delta SFC/10^6 cells,[1]; [10],1 SFC/10^6 cells
same,Ratio,[1]; [10],1.0
same,Delta SFC/10^6 cells,[2]; [11],205 SFC/10^6 cells
same,Ratio,[2]; [11],6.9
CC(C)C[C@H](NC(=O)[C@H](CC(C)C)NC(=O)[C@@H](NC(=O)[C@H](CS)NC(=O)[C@H](Cc1ccccc1)NC(=O)[C@H](CS)NC(=O)[C@H](CC(C)C)NC(=O)[C@H](CC(C)C)NC(=O)[C@@H](N)Cc1ccccc1)C(C)C)C(=O)O [compound 51] (H-FLLCFCVLL-OH; N-terminus and C-terminus assumed),ICCG6137 SFC/10^6 cells Delta,[1],8 SFC/10^6 cells
same,ICCG6138 SFC/10^6 cells Delta,[1],8 SFC/10^6 cells
same,Peptide Pool SFC/10^6 cells Delta,[2],195 SFC/10^6 cells
CC(C)C[C@H](NC(=O)[C@H](CS)NC(=O)[C@@H](NC(=O)[C@H](CO)NC(=O)[C@H](Cc1ccccc1)NC(=O)[C@H](CS)NC(=O)[C@H](CC(C)C)NC(=O)[C@H](CC(C)C)NC(=O)[C@@H](N)Cc1ccccc1)C(C)C)C(=O)O [compound 75] (H-FLLCFSVCL-OH; N-terminus and C-terminus assumed),ICCG6137 SFC/10^6 cells Delta,[1],1 SFC/10^6 cells
same,ICCG6138 SFC/10^6 cells Delta,[1],1 SFC/10^6 cells
same,Peptide Pool SFC/10^6 cells Delta,[2],75 SFC/10^6 cells
140 (PYAVCDKCL; Human papillomavirus type 16) [compound 140],Delta SFC/10^6 cells,[1]; [9],3 SFC/10^6 cells
same,Ratio,[1]; [9],1.1
same,Delta SFC/10^6 cells,[1]; [10],1 SFC/10^6 cells
same,Ratio,[1]; [10],1.0
same,Delta SFC/10^6 cells,[2]; [11],150 SFC/10^6 cells
same,Ratio,[2]; [11],4.2
154 (FYSRIRELRY; Human papilloma virus) [compound 154],ICCG6137 SFC/10^6 cells Delta,[1],45 SFC/10^6 cells
same,ICCG6137 SFC/10^6 cells Ratio,[1],2.0
same,ICCG6138 SFC/10^6 cells Delta,[1],33 SFC/10^6 cells
same,ICCG6138 SFC/10^6 cells Ratio,[1],1.3
same,Peptide Pool SFC/10^6 cells Delta,[2],165 SFC/10^6 cells
same,Peptide Pool SFC/10^6 cells Ratio,[2],7.3
151 (RTEVYQFAFK; Human papillomavirus type 45) [compound 151],ICCG6137 SFC/10^6 cells Delta,[1],1 SFC/10^6 cells
same,ICCG6137 SFC/10^6 cells Ratio,[1],1.0
same,ICCG6138 SFC/10^6 cells Delta,[1],1 SFC/10^6 cells
same,ICCG6138 SFC/10^6 cells Ratio,[1],1.0
same,Peptide Pool SFC/10^6 cells Delta,[2],1 SFC/10^6 cells
same,Peptide Pool SFC/10^6 cells Ratio,[2],1.0
134 (GTLGIVCPI; Human papillomavirus type 16) [compound 134],Delta SFC/10^6 cells,[1]; [3],1 SFC/10^6 cells
same,Ratio,[1]; [3],1.0
same,Delta SFC/10^6 cells,[1]; [4],3 SFC/10^6 cells
same,Ratio,[1]; [4],1.7
same,Delta SFC/10^6 cells,[2]; [5],55 SFC/10^6 cells
same,Ratio,[2]; [5],8.0
CSCC[C@H](N)C(=O)N[C@@H](Cc1ccc(O)cc1)C(=O)N[C@H](C(=O)N[C@@H](CS)C(=O)N[C@@H](CS)C(=O)N[C@@H](Cc1c[nH]cn1)C(=O)N[C@H](C(=O)N1CCC[C@H]1C(=O)N[C@@H](CC(C)C)C(=O)O)C(C)C)C(C)C [compound 42] (H-MYVCCHVPL-OH; N-terminus and C-terminus assumed),Delta SFC/10^6 cells,[1]; [9],1 SFC/10^6 cells
same,Delta SFC/10^6 cells,[1]; [10],1 SFC/10^6 cells
same,Delta SFC/10^6 cells,[2]; [11],1 SFC/10^6 cells
143 (LYNLLIRWL; Human papillomavirus type 18-derived epitope) [compound 143],Delta SFC/10^6 cells,[1]; [9],3 SFC/10^6 cells
same,Ratio,[1]; [9],1.0
same,Delta SFC/10^6 cells,[1]; [10],1 SFC/10^6 cells
same,Ratio,[1]; [10],1.0
same,Delta SFC/10^6 cells,[2]; [11],30 SFC/10^6 cells
same,Ratio,[2]; [11],1.5
137 (DSVYGDTLEK; Human papillomavirus type 18) [compound 137],Delta SFC/10^6 cells,[1]; [6],15 SFC/10^6 cells
same,Ratio,[1]; [6],1.2
same,Delta SFC/10^6 cells,[1]; [7],1 SFC/10^6 cells
same,Ratio,[1]; [7],1.0
same,Delta SFC/10^6 cells,[2]; [8],40 SFC/10^6 cells
same,Ratio,[2]; [8],1.1
150 (TLQEIVLHL; Human papillomavirus type 45) [compound 150],ICCG6137 SFC/10^6 cells Delta,[1],5 SFC/10^6 cells
same,ICCG6137 SFC/10^6 cells Ratio,[1],2.0
same,ICCG6138 SFC/10^6 cells Delta,[1],3 SFC/10^6 cells
same,ICCG6138 SFC/10^6 cells Ratio,[1],1.3
same,Peptide Pool SFC/10^6 cells Delta,[2],70 SFC/10^6 cells
same,Peptide Pool SFC/10^6 cells Ratio,[2],8.0
135 (TIHDIILECV; Human papillomavirus type 16) [compound 135],Delta SFC/10^6 cells,[1]; [3],562 SFC/10^6 cells
same,Ratio,[1]; [3],86.7
same,Delta SFC/10^6 cells,[1]; [4],358 SFC/10^6 cells
same,Ratio,[1]; [4],24.8
same,Delta SFC/10^6 cells,[2]; [5],80 SFC/10^6 cells
same,Ratio,[2]; [5],10.0
139 (CYSLYGTTL; Human papillomavirus type 16) [compound 139],Delta SFC/10^6 cells,[1]; [9],3 SFC/10^6 cells
same,Ratio,[1]; [9],1.0
same,Delta SFC/10^6 cells,[1]; [10],1 SFC/10^6 cells
same,Ratio,[1]; [10],1.0
same,Delta SFC/10^6 cells,[2]; [11],1 SFC/10^6 cells
same,Ratio,[2]; [11],1.0
152 (SVYGTTLEK; Human papillomavirus type 31) [compound 152],ICCG6137 SFC/10^6 cells Delta,[1],1050 SFC/10^6 cells
same,ICCG6137 SFC/10^6 cells Ratio,[1],5.4
same,ICCG6138 SFC/10^6 cells Delta,[1],1150 SFC/10^6 cells
same,ICCG6138 SFC/10^6 cells Ratio,[1],9.7
same,Peptide Pool SFC/10^6 cells Delta,[2],730 SFC/10^6 cells
same,Peptide Pool SFC/10^6 cells Ratio,[2],6.2
132 (ISEYRHYCY; Human papillomavirus type 16) [compound 132],Delta SFC/10^6 cells,[1]; [12],3 SFC/10^6 cells
same,Ratio,[1]; [12],1.1
same,Delta SFC/10^6 cells,[2]; [13],2 SFC/10^6 cells
same,Ratio,[2]; [13],1.1
149 (YQFAFKDLCI; Human papillomavirus type 45) [compound 149],ICCG6137 SFC/10^6 cells Delta,[1],3 SFC/10^6 cells
same,ICCG6137 SFC/10^6 cells Ratio,[1],1.1
same,ICCG6138 SFC/10^6 cells Delta,[1],1 SFC/10^6 cells
same,ICCG6138 SFC/10^6 cells Ratio,[1],1.0
same,Peptide Pool SFC/10^6 cells Delta,[2],10 SFC/10^6 cells
same,Peptide Pool SFC/10^6 cells Ratio,[2],2.0
